Data: ChEMBL document CHEMBL3885861, “Open TG-GATES”

Species: Rattus norvegicus
Assay: Open TG-GATES - Regimen: Daily Repeat
Type: toxicity, organism-based, Sprague-Dawley
Set-up: regimen Daily Repeat, gender Male, age 6 weeks
Settings: in vivo, iv, 2 mg/kg, route intravenous injection, dose level Low; for APTT / Bas / Eos / Fbg / Hb / Ht / Lym / MCH / MCHC / MCV / Mono / Neu / PT / Plat / RBC / Ret / WBC: tissue Blood; for KIDNEY_L / KIDNEY_R / KIDNEY_TOTAL: tissue Kidney; for LIVER: tissue Liver; for A/G / ALP / ALT / AST / BUN / CRE / Ca / Cl / DBIL / GLC / IP / K / LDH / Na / PL / RALB / TBIL / TC / TG / TP / gamma-GTP: tissue Plasma

Molecule NCCBr [BROMOETHANAMINE] has a TERMINAL_BW (72 h, time 3 day) of 236.2 g, an APTT (72 h, time 3 day) of 22.5 s and a Bas (72 h, time 3 day) of 0%. For the same molecule, the Eos (72 h, time 3 day) was 1%, the Fbg (72 h, time 3 day) was 280.4 mg/dL and the Hb (72 h, time 3 day) was 13.2 g/dL. For the same molecule, the Ht (72 h, time 3 day) was 38.3%, the Lym (72 h, time 3 day) was 83.2% and the MCH (72 h, time 3 day) was 21.2 pg. It also gave an MCHC (72 h, time 3 day) of 34.4%, an MCV (72 h, time 3 day) of 61.6 fL and a Mono (72 h, time 3 day) of 2.8%. The Neu (72 h, time 3 day) was 12%, the PT (72 h, time 3 day) was 16.2 s and the Plat (72 h, time 3 day) was 119.2 x10_4/uL. It also gave an RBC (72 h, time 3 day) of 620.8 x10_4/ul, a Ret (72 h, time 3 day) of 4.7% and a WBC (72 h, time 3 day) of 80.2 x10_2/uL. For the same molecule, the KIDNEY_L (72 h, time 3 day) was 1 g, the KIDNEY_R (72 h, time 3 day) was 1 g and the KIDNEY_TOTAL (72 h, time 3 day) was 2 g. The LIVER (72 h, time 3 day) was 11.1 g, the A/G (72 h, time 3 day) was 1.3 and the ALP (72 h, time 3 day) was 1553.4 IU/L. It also gave an ALT (72 h, time 3 day) of 39.6 IU/L, an AST (72 h, time 3 day) of 68.4 IU/L and a BUN (72 h, time 3 day) of 16.2 mg/dL. The CRE (72 h, time 3 day) was 0.2 mg/dL, the Ca (72 h, time 3 day) was 10.8 mg/dL and the Cl (72 h, time 3 day) was 106.4 meq/L. For the same molecule, the DBIL (72 h, time 3 day) was 0 mg/dL, the GLC (72 h, time 3 day) was 178.6 mg/dL and the IP (72 h, time 3 day) was 7.2 mg/dL. For the same molecule, the K (72 h, time 3 day) was 4.6 meq/L, the LDH (72 h, time 3 day) was 195.6 IU/L and the Na (72 h, time 3 day) was 141.8 meq/L. The PL (72 h, time 3 day) was 143.4 mg/dL, the RALB (72 h, time 3 day) was 3.1 g/dL and the TBIL (72 h, time 3 day) was 0.006 mg/dL. For the same molecule, the TC (72 h, time 3 day) was 73.6 mg/dL, the TG (72 h, time 3 day) was 113 mg/dL and the TP (72 h, time 3 day) was 5.6 g/dL. For the same molecule, the gamma-GTP (72 h, time 3 day) was 2 IU/L, the TERMINAL_BW ([…], time 7 day) was 254.2 g and the TERMINAL_BW ([…], time 14 day) was 302.2 g. It also gave a TERMINAL_BW ([…], time 28 day) of 366.5 g, an APTT ([…], time 7 day) of 22.7 s and a Bas ([…], time 7 day) of 0%. It also gave an Eos ([…], time 7 day) of 0.8%, a Fbg ([…], time 7 day) of 278.8 mg/dL and a Hb ([…], time 7 day) of 13.5 g/dL. The Ht ([…], time 7 day) was 39.3%, the Lym ([…], time 7 day) was 80.6% and the MCH ([…], time 7 day) was 21 pg. The MCHC ([…], time 7 day) was 34.4%, the MCV ([…], time 7 day) was 61 fL and the Mono ([…], time 7 day) was 2.8%. For the same molecule, the Neu ([…], time 7 day) was 15%, the PT ([…], time 7 day) was 15.8 s and the Plat ([…], time 7 day) was 116.6 x10_4/uL. The RBC ([…], time 7 day) was 644 x10_4/ul, the Ret ([…], time 7 day) was 3.9% and the WBC ([…], time 7 day) was 126.7 x10_2/uL. For the same molecule, the APTT ([…], time 14 day) was 23 s, the Bas ([…], time 14 day) was 0% and the Eos ([…], time 14 day) was 1%. It also gave a Fbg ([…], time 14 day) of 310.8 mg/dL, a Hb ([…], time 14 day) of 14.1 g/dL and a Ht ([…], time 14 day) of 40.3%. For the same molecule, the Lym ([…], time 14 day) was 84.8%, the MCH ([…], time 14 day) was 20.5 pg and the MCHC ([…], time 14 day) was 35%. For the same molecule, the MCV ([…], time 14 day) was 58.7 fL, the Mono ([…], time 14 day) was 2.2% and the Neu ([…], time 14 day) was 11.4%. The PT ([…], time 14 day) was 15.8 s, the Plat ([…], time 14 day) was 116.5 x10_4/uL and the RBC ([…], time 14 day) was 686.6 x10_4/ul. The Ret ([…], time 14 day) was 3.3%, the WBC ([…], time 14 day) was 104.7 x10_2/uL and the APTT ([…], time 28 day) was 24.7 s. The Bas ([…], time 28 day) was 0%, the Eos ([…], time 28 day) was 1% and the Fbg ([…], time 28 day) was 305.8 mg/dL. For the same molecule, the Hb ([…], time 28 day) was 15.7 g/dL, the Ht ([…], time 28 day) was 42.4% and the Lym ([…], time 28 day) was 85.4%. The MCH ([…], time 28 day) was 20.4 pg, the MCHC ([…], time 28 day) was 37.1% and the MCV ([…], time 28 day) was 54.9 fL. The Mono ([…], time 28 day) was 1.4%, the Neu ([…], time 28 day) was 10.6% and the PT ([…], time 28 day) was 16.4 s. For the same molecule, the Plat ([…], time 28 day) was 110.2 x10_4/uL, the RBC ([…], time 28 day) was 772.8 x10_4/ul and the Ret ([…], time 28 day) was 1.9%. For the same molecule, the WBC ([…], time 28 day) was 107.8 x10_2/uL, the KIDNEY_L ([…], time 7 day) was 1.1 g and the KIDNEY_R ([…], time 7 day) was 1.1 g. The KIDNEY_TOTAL ([…], time 7 day) was 2.2 g, the KIDNEY_L ([…], time 14 day) was 1.2 g and the KIDNEY_R ([…], time 14 day) was 1.2 g. It also gave a KIDNEY_TOTAL ([…], time 14 day) of 2.4 g, a KIDNEY_L ([…], time 28 day) of 1.4 g and a KIDNEY_R ([…], time 28 day) of 1.4 g. The KIDNEY_TOTAL ([…], time 28 day) was 2.8 g, the LIVER ([…], time 7 day) was 11.6 g and the LIVER ([…], time 14 day) was 13.5 g. For the same molecule, the LIVER ([…], time 28 day) was 15 g, the A/G ([…], time 7 day) was 1.2 and the ALP ([…], time 7 day) was 1420.8 IU/L. The ALT ([…], time 7 day) was 36.2 IU/L, the AST ([…], time 7 day) was 64 IU/L and the BUN ([…], time 7 day) was 16.2 mg/dL. For the same molecule, the CRE ([…], time 7 day) was 0.2 mg/dL, the Ca ([…], time 7 day) was 10.7 mg/dL and the Cl ([…], time 7 day) was 105.8 meq/L. It also gave a DBIL ([…], time 7 day) of 0 mg/dL, a GLC ([…], time 7 day) of 181 mg/dL and an IP ([…], time 7 day) of 7 mg/dL. It also gave a K ([…], time 7 day) of 4.6 meq/L, an LDH ([…], time 7 day) of 158.8 IU/L and a Na ([…], time 7 day) of 140.8 meq/L. It also gave a PL ([…], time 7 day) of 141 mg/dL, an RALB ([…], time 7 day) of 2.9 g/dL and a TBIL ([…], time 7 day) of 0.01 mg/dL. The TC ([…], time 7 day) was 75.2 mg/dL, the TG ([…], time 7 day) was 93 mg/dL and the TP ([…], time 7 day) was 5.4 g/dL. It also gave a gamma-GTP ([…], time 7 day) of 2 IU/L, an A/G ([…], time 14 day) of 1.1 and an ALP ([…], time 14 day) of 1559.2 IU/L. For the same molecule, the ALT ([…], time 14 day) was 40.6 IU/L, the AST ([…], time 14 day) was 67.6 IU/L and the BUN ([…], time 14 day) was 17.6 mg/dL. The CRE ([…], time 14 day) was 0.2 mg/dL, the Ca ([…], time 14 day) was 10.9 mg/dL and the Cl ([…], time 14 day) was 107 meq/L. It also gave a DBIL ([…], time 14 day) of 0 mg/dL, a GLC ([…], time 14 day) of 184 mg/dL and an IP ([…], time 14 day) of 7.1 mg/dL. It also gave a K ([…], time 14 day) of 4.3 meq/L, an LDH ([…], time 14 day) of 168.6 IU/L and a Na ([…], time 14 day) of 144.4 meq/L. For the same molecule, the PL ([…], time 14 day) was 149 mg/dL, the RALB ([…], time 14 day) was 3 g/dL and the TBIL ([…], time 14 day) was 0 mg/dL. It also gave a TC ([…], time 14 day) of 75.4 mg/dL, a TG ([…], time 14 day) of 123 mg/dL and a TP ([…], time 14 day) of 5.7 g/dL. The gamma-GTP ([…], time 14 day) was 2.6 IU/L, the A/G ([…], time 28 day) was 1.1 and the ALP ([…], time 28 day) was 1213.2 IU/L. It also gave an ALT ([…], time 28 day) of 40.8 IU/L, an AST ([…], time 28 day) of 66 IU/L and a BUN ([…], time 28 day) of 18.4 mg/dL. The CRE ([…], time 28 day) was 0.2 mg/dL, the Ca ([…], time 28 day) was 10.4 mg/dL and the Cl ([…], time 28 day) was 105.6 meq/L. For the same molecule, the DBIL ([…], time 28 day) was 0 mg/dL, the GLC ([…], time 28 day) was 188.6 mg/dL and the IP ([…], time 28 day) was 6.6 mg/dL. It also gave a K ([…], time 28 day) of 4.1 meq/L, an LDH ([…], time 28 day) of 123 IU/L and a Na ([…], time 28 day) of 145.8 meq/L. For the same molecule, the PL ([…], time 28 day) was 141.8 mg/dL, the RALB ([…], time 28 day) was 3.2 g/dL and the TBIL ([…], time 28 day) was 0.01 mg/dL. It also gave a TC ([…], time 28 day) of 67.4 mg/dL, a TG ([…], time 28 day) of 133.8 mg/dL and a TP ([…], time 28 day) of 6 g/dL. The gamma-GTP ([…], time 28 day) was 3 IU/L.
